Laboratory results from paper PMC7998926 (Microorganisms, 2021).
Several values for one entry are separate records, joined by “and”; a condition that tells them apart may be missing. Equal values may be shown once. Entries after “also recorded” stand apart in the source; their conditions may differ. Read-outs that look alike come from different tables or passages of the source.

How the values were obtained:
EBOV [1] = assay: microbe, parasite or virus in culture; assay type: cell-based, Ebola virus; conditions: Zaire ebolavirus, read-out: IC50 (average) (μM)
EBOV/Mak [2] = conditions: cited from earlier work; for IC50: read-out: IC50 (Huh7)
EBOV [3] = conditions: mouse, in vivo, cited from earlier work
[4] = human, in vivo, po, cited from earlier work
EBOV [5] = test system: EBOV; set-up: species or system Ebola virus
EBOV [6] = test system: EBOV; set-up: species or system mice; conditions: mouse, in vivo
[7] = C57BL/6, mouse, in vivo, po; for Cmax obtained relative to prediction, fold higher: female
[8] = mouse, in vivo
EBOV/Mak-C05 = conditions: rhesus monkey, in vivo; cited from earlier work
in vivo [9] = conditions: female, C57BL/6, mouse, po
in vivo [10] = conditions: mouse, po, 10 mg/kg
[11] = mouse, in vivo; cited from earlier work
EBOV [12] = conditions: read-out: IC50 (HepG2); cited from earlier work
EBOV/Mak [13] = assay type: cell-based, Ebola virus
VSV-EBOV-GPΔ-Luc = assay type: cell-based
MARV = conditions: mouse, in vivo, ip, 12 mg/kg; cited from earlier work
[14] = rat, in vivo; cited from earlier work

## CC[C@H]1OC(=O)[C@H](C)[C@@H](O[C@H]2C[C@@](C)(OC)[C@@H](O)[C@H](C)O2)[C@H](C)[C@@H](O[C@@H]2O[C@H](C)C[C@H](N(C)C)[C@H]2O)[C@](C)(O)C[C@@H](C)CN(C)[C@H](C)[C@@H](O)[C@]1(C)O [Azithromycin]
EBOV [1]
  IC50: 10.8 µM
EBOV/Mak [2]
  IC50: 10.8 µM
EBOV [3]; ip, 100 mg/kg
  Survival (%): 10, 30, 60 ^2%
[4]; 500 mg
  Cmax: 640 nM

## CCN(CC)CCOc1ccc(C(=C(Cl)c2ccccc2)c2ccccc2)cc1 [Clomiphene]
EBOV [3]; ip, 12 mg/kg
  protection: 60% and 40%
EBOV [3]; po, 21 mg/kg
  protection: no mice were protected
[4]; 50 mg
  Cmax: 50 nM

## O=C1CCc2ccc(OCCCCN3CCN(c4cccc(Cl)c4Cl)CC3)cc2N1 [Aripiprazole]
EBOV [3]; ip, 20 mg/kg
  Survival (%): 10 ^1%
  somnolence in treated mice: extremely somnolent
[4]; 30 mg
  Cmax: 1010 nM

## CN[C@H]1CC[C@@H](c2ccc(Cl)c(Cl)c2)c2ccccc21 [Sertraline]
EBOV [5]
  mi (hill coefficient of drug i applied in combination): 2.736 and 1.996
EBOV [6]
  predicted survival: ~ 35%
EBOV/Mak [2]
  Hill coefficient: 1.628
[7]
  Cmax: ~1200 nM
  Cmax obtained relative to prediction, fold higher: ~ 1.2 fold
[8]
  tolerability: well tolerated
EBOV/Mak-C05
  protection: not effective; also recorded: did not protect macaques
In vivo [9]; 30 mg/kg
  MRT: 11 h
  half-life: 1 h
In vivo [9]; 60 mg/kg
  MRT: 5 h
  half-life: 1 h
In vivo [10]
  Cmax: 430 nM
EBOV [3]; ip, 10 mg/kg
  Survival (%): 70%
[11]
  Oral LD50: 336 mg/kg
[4]; 200 mg
  Cmax: 540 nM

## CC(=O)c1ccc2c(c1)N(CCCN1CCC(CCO)CC1)c1ccccc1S2 [Piperacetazine]
EBOV [1]
  IC50: 5.44 µM
EBOV/Mak [2]
  IC50: 7.58 µM
EBOV [12]
  IC50: 3.3 µM

## CC(C)COCC(CN(Cc1ccccc1)c1ccccc1)N1CCCC1 (stereo not drawn) [Bepridil]
EBOV/Mak [13]
  possible loss of potency: < 2 fold
EBOV [1]
  IC50: ~4 µM
VSV-EBOV-GPΔ-Luc
  inhibitory activity over time (stability in V8): maintained inhibitory activity over 15 days
EBOV [5]
  mi (hill coefficient of drug i applied in combination): 4.043
EBOV/Mak [2]
  Hill coefficient: 4.859
  IC50: 5.86 µM
[7]
  Cmax: ~3000 nM
  Cmax obtained relative to prediction, fold higher: ~ 1.8 fold
[8]
  tolerability: well tolerated
EBOV [12]
  IC50: 3.21 µM
MARV
  Survival (%): 90 ^4%
  mice protected: 80%
In vivo [9]; 150 mg/kg
  MRT: 6 h
  half-life: 0.5 h
In vivo [9]; 500 mg/kg
  MRT: 9 h
  half-life: 0.5 h
EBOV [3]; ip, 12 mg/kg
  Survival (%): 100% and 100 ^3%
  survival: 90-100%
[11]
  Oral LD50: 2069 mg/kg
[4]; 400 mg
  Cmax: 2430 nM

## Cc1cccc(/C=N/Nc2cc(N3CCOCC3)nc(OCCc3ccccn3)n2)c1 [Apilimod]
EBOV [1]
  IC50: 0.17 µM
EBOV/Mak [2]
  IC50: 0.17 µM
[4]; 70 mg
  Cmax: 260 nM

## CN(C)CCOc1ccc(/C(=C(/CCCl)c2ccccc2)c2ccccc2)cc1 [Toremifene]
EBOV [1]
  IC50: 1.8 µM
VSV-EBOV-GPΔ-Luc
  inhibitory activity over time (stability in V8): began to lose activity after ~1 week
EBOV [5]
  mi (hill coefficient of drug i applied in combination): 1.628
EBOV [6]
  approximated protection of infected mice: ~ 50%
  estimated survival: ~ 50%
  predicted survival: ~ 7%
EBOV/Mak [2]
  Hill coefficient: 3.057
  IC50: 3.64 µM
[7]
  Cmax: ~4400 nM
[8]
  tolerability: well tolerated
EBOV [12]
  IC50: 0.03 µM
In vivo [9]; 100 mg/kg
  Cmax: 498 ng/mL
  MRT: 6 h
  half-life: 0.5 h
In vivo [9]; 200 mg/kg
  Cmax: 1300 ng/mL
  MRT: 16 h
  half-life: 0.2 h
In vivo [10]
  Cmax: 160 nM
EBOV [3]; ip, 60 mg/kg
  Survival (%): 50%
[14]
  Oral LD50: 3000 mg/kg
[4]; 60 mg
  Cmax: 1970 nM
